Source: BindingDB's records for doi:10.1021/acschembio.5b00940 (University of Washington, 2016)

What follows are molecules tested against T1, Serine/threonine-protein kinase/endoribonuclease IRE1 [547-977] (Homo sapiens, UniProt O75460) (assay: In vitro RNase Assay).
T1 construct: 547-977
Text: The fluorescence intensities were normalized by setting the signal for the reaction without IRE1α* to 0.

T1 sequence (O75460 547-977): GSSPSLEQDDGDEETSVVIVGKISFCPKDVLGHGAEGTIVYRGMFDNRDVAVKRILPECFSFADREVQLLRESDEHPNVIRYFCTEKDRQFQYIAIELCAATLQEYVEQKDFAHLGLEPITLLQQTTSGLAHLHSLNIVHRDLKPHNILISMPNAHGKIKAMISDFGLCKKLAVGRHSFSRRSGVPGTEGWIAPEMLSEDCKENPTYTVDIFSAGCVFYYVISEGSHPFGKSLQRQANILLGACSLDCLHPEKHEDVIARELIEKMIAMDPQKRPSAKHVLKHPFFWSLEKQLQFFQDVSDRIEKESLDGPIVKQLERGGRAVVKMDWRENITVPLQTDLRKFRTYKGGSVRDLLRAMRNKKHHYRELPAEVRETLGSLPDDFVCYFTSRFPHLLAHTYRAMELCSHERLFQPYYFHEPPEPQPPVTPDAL

IC50	Compound
0.12 µM	CC(C)(C)c1nc(-c2ccc(NC(=O)Nc3cccc(C(F)(F)F)c3)c3ccccc23)c2c(N)nccn12 [KIRA analog, 2]
0.09 µM	CC1(c2nc(-c3ccc(NC(=O)Nc4cccc(C(F)(F)F)c4)c4ccccc34)c3c(N)nccn23)CC1 [KIRA analog, 3]
0.18 µM	Nc1nccn2c(C3CCC3)nc(-c3ccc(NC(=O)Nc4cccc(C(F)(F)F)c4)c4ccccc34)c12 [KIRA analog, 4]
0.48 µM	Nc1nccn2c(C3CC3)nc(-c3ccc(NC(=O)Nc4cccc(C(F)(F)F)c4)c4ccccc34)c12 [KIRA analog, 5]
0.33 µM	CC1(c2nc(-c3ccc(NC(=O)Nc4cccc(C(F)(F)F)c4)c4ccccc34)c3c(N)nccn23)COC1 [KIRA analog, 6]
0.39 µM	CC1(c2nc(-c3ccc(NC(=O)Nc4cccc(C(F)(F)F)c4)cc3F)c3c(N)nccn23)CC1 [KIRA analog, 7]
1.5 µM	Cc1cc(NC(=O)Nc2cccc(C(F)(F)F)c2)ccc1-c1nc(C2(C)CC2)n2ccnc(N)c12 [KIRA analog, 8]
2.4 µM	CC1(c2nc(-c3ccc(NC(=O)Nc4cccc(C(F)(F)F)c4)cc3Cl)c3c(N)nccn23)CC1 [KIRA analog, 9]
1.2 µM	Cc1c(NC(=O)Nc2cccc(C(F)(F)F)c2)ccc(-c2nc(C3(C)CC3)n3ccnc(N)c23)c1C [KIRA analog, 10]
20 µM	CC1(c2nc(-c3ccc(NC(=O)Nc4cccc(C(F)(F)F)c4)c(F)c3F)c3c(N)nccn23)CC1 [KIRA analog, 11]
0.19 µM	CC1(c2nc(-c3ccc(NC(=O)Nc4ccccc4)c4ccccc34)c3c(N)nccn23)CC1 [KIRA analog, 12]
0.22 µM	CC1(c2nc(-c3ccc(NC(=O)Nc4cccc(F)c4)c4ccccc34)c3c(N)nccn23)CC1 [KIRA analog, 13]
0.26 µM	Cc1cccc(NC(=O)Nc2ccc(-c3nc(C4(C)CC4)n4ccnc(N)c34)c3ccccc23)c1 [KIRA analog, 14]
0.31 µM	COc1cccc(NC(=O)Nc2ccc(-c3nc(C4(C)CC4)n4ccnc(N)c34)c3ccccc23)c1 [KIRA analog, 15]
0.14 µM	CSc1cccc(NC(=O)Nc2ccc(-c3nc(C4(C)CC4)n4ccnc(N)c34)c3ccccc23)c1 [KIRA analog, 16]
0.29 µM	COc1cc(NC(=O)Nc2ccc(-c3nc(C4(C)CC4)n4ccnc(N)c34)c3ccccc23)cc(C(F)(F)F)c1 [KIRA analog, 17]

IC50	Compound
0.61 µM	CC1(c2nc(-c3ccc(NC(=O)Nc4cc(F)cc(C(F)(F)F)c4)c4ccccc34)c3c(N)nccn23)CC1 [KIRA analog, 18]
1.6 µM	CNS(=O)(=O)c1cccc(NC(=O)Nc2ccc(-c3nc(C4(C)CC4)n4ccnc(N)c34)c3ccccc23)c1 [KIRA analog, 19]
0.19 µM	CN1CCN(Cc2ccc(NC(=O)Nc3ccc(-c4nc(C5(C)CC5)n5ccnc(N)c45)c4ccccc34)cc2C(F)(F)F)CC1 [KIRA analog, 20]
0.34 µM	CN1CCN(Cc2ccc(NC(=O)Nc3ccc(-c4nc(C5(C)CC5)n5ccnc(N)c45)c4ccccc34)cc2)CC1 [KIRA analog, 21]
7.1 µM	Cc1cc(NC(=O)Nc2ccc(-c3nc(C4(C)CC4)n4ccnc(N)c34)c3ccccc23)n[nH]1 [KIRA analog, 22]
3.6 µM	CC1(c2nc(-c3ccc(NC(=O)NCc4ccccc4)c4ccccc34)c3c(N)nccn23)CC1 [KIRA analog, 23]
4.1 µM	CC1(c2nc(-c3ccc(NC(=O)NCCc4ccccc4)c4ccccc34)c3c(N)nccn23)CC1 [KIRA analog, 24]
2.2 µM	CC1(c2nc(-c3ccc(NC(=O)NC4CCCCC4)c4ccccc34)c3c(N)nccn23)CC1 [KIRA analog, 25]
60 µM	CC1(c2nc(-c3ccc(NC(=O)N4CCOCC4)c4ccccc34)c3c(N)nccn23)CC1 [KIRA analog, 26]
60 µM	CC1(c2nc(-c3ccc(NC(=O)N4CCCCC4)c4ccccc34)c3c(N)nccn23)CC1 [KIRA analog, 27]
6.3 µM	CC1(c2nc(-c3ccc(NC(=O)NC4CC4)c4ccccc34)c3c(N)nccn23)CC1 [KIRA analog, 28]
19 µM	CN(C(=O)Nc1ccc(-c2nc(C3(C)CC3)n3ccnc(N)c23)c2ccccc12)c1cccc(C(F)(F)F)c1 [KIRA analog, 29]
> 60 µM	CC(C)(C)c1nc(-c2ccc(NC(=O)N3CCN(c4cccc(C(F)(F)F)c4)C3=O)c3ccccc23)c2c(N)nccn12 [KIRA analog, 30]
60 µM	CC1(c2nc(-c3ccc(NC(=O)OCCc4ccccc4)c4ccccc34)c3c(N)nccn23)CC1 [KIRA analog, 31]
60 µM	CC1(c2nc(-c3ccc(NC(=O)OCC(=O)c4ccccc4)c4ccccc34)c3c(N)nccn23)CC1 [KIRA analog, 32]
